Measured values: PubChem BioAssay AID328 (DTP/NCI, 2004)
Several values for one entry are separate records, joined by “and”; a condition that tells them apart may be missing. Equal entries are not always repeated. Inconclusive results and toxic doses are left out.

Test system: BDF1 mice, P388 leukemia ip, median survival T/C
Assay: NCI In Vivo Anticancer Drug Screen. Data for tumor model P388 Leukemia (intraperitoneal) in B6D2F1 (BDF1) mice
Conditions: endpoint: median survival time, higher = longer survival
In short: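 In tumour-bearing mice, survival after compound treatment is set against the vehicle group and given as a quotient.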

[1] = dose: 50.0 mg/kg/injection, schedule: Q01DX009 (ip), vehicle: Klucel (hydroxypropylcellulose) (HPC)
[2] = dose: 100.0 mg/kg/injection, schedule: Q01DX009 (ip), vehicle: Klucel (hydroxypropylcellulose) (HPC)
[3] = dose: 100.0 mg/kg/injection, schedule: Q04DX003 (ip), vehicle: Klucel (hydroxypropylcellulose) (HPC)
[4] = dose: 200.0 mg/kg/injection, schedule: Q04DX003 (ip), vehicle: Klucel (hydroxypropylcellulose) (HPC)
[5] = dose: 100.0 mg/kg/injection, schedule: Q01DX009 (ip), vehicle: saline
[6] = dose: 200.0 mg/kg/injection, schedule: Q01DX009 (ip), vehicle: saline

CC(Cl)CN(CC(C)Cl)c1ccc(S(=O)(=O)Nc2ncccn2)cc1 (configuration not stated)
T/C (dose: 12.0 mg/kg/injection, schedule: Q01DX009 (ip), vehicle: gum acacia): 152 % of control | T/C (dose: 26.0 mg/kg/injection, schedule: Q01DX009 (ip), vehicle: gum acacia): 166 % of control and 172 % of control | T/C (dose: 40.0 mg/kg/injection, schedule: Q01DX009 (ip), vehicle: gum acacia): 175 % of control | T/C (dose: 50.0 mg/kg/injection, schedule: Q01DX009 (ip), vehicle: gum acacia): 190 % of control | T/C (dose: 50.0 mg/kg/injection, schedule: Q04DX003 (ip), vehicle: gum acacia): 100 % of control | T/C (dose: 60.0 mg/kg/injection, schedule: Q01DX009 (ip), vehicle: gum acacia): 183 % of control | T/C (dose: 90.0 mg/kg/injection, schedule: Q01DX009 (ip), vehicle: gum acacia): 183 % of control and 215 % of control | T/C (dose: 100.0 mg/kg/injection, schedule: Q01DX009 (ip), vehicle: gum acacia): 272 % of control | T/C (dose: 100.0 mg/kg/injection, schedule: Q04DX003 (ip), vehicle: gum acacia): 100 % of control | T/C (dose: 133.0 mg/kg/injection, schedule: Q01DX009 (ip), vehicle: gum acacia): 230 % of control | T/C (dose: 200.0 mg/kg/injection, schedule: Q04DX003 (ip), vehicle: gum acacia): 105 % of control

O=C(O)c1cc(-c2ccc(Cl)cc2)nc2c(Cl)cccc12
T/C [1]: 100 % of control | T/C (dose: 50.0 mg/kg/injection, schedule: Q04DX003 (ip), vehicle: Klucel (hydroxypropylcellulose) (HPC)): 91 % of control | T/C [2]: 100 % of control | T/C [3]: 86 % of control | T/C [4]: 86 % of control

O=[As]c1ccc(Br)cc1 (configuration not stated)
T/C (dose: 0.5 mg/kg/injection, schedule: Q01DX009 (ip), vehicle: Klucel (hydroxypropylcellulose) (HPC)): 104 % of control | T/C (dose: 1.0 mg/kg/injection, schedule: Q01DX009 (ip), vehicle: Klucel (hydroxypropylcellulose) (HPC)): 104 % of control | T/C (dose: 2.0 mg/kg/injection, schedule: Q01DX009 (ip), vehicle: Klucel (hydroxypropylcellulose) (HPC)): 104 % of control

Cc1ccc(NCN2C(=O)NC(c3ccccc3)(c3ccccc3)C2=O)cc1
T/C (dose: 100.0 mg/kg/injection, schedule: Q01DX001 (ip), vehicle: saline with Tween-80): 90 % of control | T/C (dose: 200.0 mg/kg/injection, schedule: Q01DX001 (ip), vehicle: saline with Tween-80): 95 % of control

NOCc1cccc(C(F)(F)F)c1
T/C (dose: 75.0 mg/kg/injection, schedule: Q04DX003 (ip), vehicle: saline): 91 % of control | T/C (dose: 150.0 mg/kg/injection, schedule: Q04DX003 (ip), vehicle: saline): 91 % of control | T/C (dose: 300.0 mg/kg/injection, schedule: Q04DX003 (ip), vehicle: saline): 91 % of control

CN(C)c1ccc(C(=O)c2ccccc2)cc1
T/C (dose: 25.0 mg/kg/injection, schedule: Q01DX009 (ip), vehicle: Klucel (hydroxypropylcellulose) (HPC)): 104 % of control | T/C [1]: 90 % of control | T/C [2]: 95 % of control

O=C(O)C1C2CC1C(Cl)C2Cl (configuration not stated)
T/C (dose: 50.0 mg/kg/injection, schedule: Q01DX009 (ip), vehicle: saline with Tween-80): 106 % of control | T/C (dose: 100.0 mg/kg/injection, schedule: Q01DX009 (ip), vehicle: saline with Tween-80): 106 % of control | T/C (dose: 200.0 mg/kg/injection, schedule: Q01DX009 (ip), vehicle: saline with Tween-80): 106 % of control

COc1ccc(C(=O)c2cc(OC)c(OC)c(OC)c2)cc1OC
T/C [2]: 92 % of control | T/C [5]: 109 % of control | T/C [3]: 95 % of control | T/C (dose: 200.0 mg/kg/injection, schedule: Q01DX009 (ip), vehicle: Klucel (hydroxypropylcellulose) (HPC)): 107 % of control | T/C [6]: 113 % of control | T/C [4]: 104 % of control | T/C (dose: 400.0 mg/kg/injection, schedule: Q01DX009 (ip), vehicle: Klucel (hydroxypropylcellulose) (HPC)): 107 % of control | T/C (dose: 400.0 mg/kg/injection, schedule: Q01DX009 (ip), vehicle: saline): 122 % of control | T/C (dose: 400.0 mg/kg/injection, schedule: Q04DX003 (ip), vehicle: Klucel (hydroxypropylcellulose) (HPC)): 95 % of control

Nc1ccc(OCCNS(=O)(=O)c2cccc(S(=O)(=O)F)c2)c(Cl)c1
T/C (dose: 25.0 mg/kg/injection, schedule: Q01DX009 (ip), vehicle: saline): 107 % of control | T/C (dose: 50.0 mg/kg/injection, schedule: Q01DX009 (ip), vehicle: saline): 104 % of control | T/C (dose: 50.0 mg/kg/injection, schedule: Q04DX003 (ip), vehicle: saline): 103 % of control | T/C [5]: 114 % of control | T/C (dose: 100.0 mg/kg/injection, schedule: Q04DX003 (ip), vehicle: saline): 103 % of control | T/C [6]: 105 % of control | T/C (dose: 200.0 mg/kg/injection, schedule: Q04DX003 (ip), vehicle: saline): 103 % of control | T/C (dose: 400.0 mg/kg/injection, schedule: Q04DX003 (ip), vehicle: saline): 100 % of control
